Here are results for six compounds from patent US5866587A, “Metalloprotease inhibitors” (Adir Et Compagnie, priority 1996, dated 1999).

Counter-ions that a name gives are not always drawn.

The subject of assay [1] is guinea pig cartilage. As to the kind of experiment: Degradation of the cartilaginous matrix induced by IL-1β: degradation of collagen (OH-proline release). It counts as cell-based. As to conditions: IL-1β (10 mg/ml) and plasminogen (30 μg/ml), 3 days; for inhibition at 1 µM: Cavia porcellus, 72 h, 10^-6 M, read-out: collagen % protection at 10^-6 M. On the procedure:
(§1) The compounds of the invention were studied in a model of destruction of the cartilaginous matrix induced by IL-1β. The trials carried out on guinea pig cartilage relate:
on the one hand, to the degradation of collagen: colorimetric assay according to the Grant technique (Grant R. A. Estimation of OH-proline by the autoanalyser, J. Clin. Path. 1964, 17, 685) of the OH-proline fraction released by the tissue brought into contact, for 3 days, with IL-1β ([…]) and of plasminogen (30 μg/ml),
(§2) The compounds of the invention were studied by addition to the culture medium for the 3 days of assay. […] By way of example, the activities exerted by some compounds of the invention are the following: […]

Assay [2] has as its system guinea pig cartilage. As to the kind of experiment: Degradation of the cartilaginous matrix induced by IL-1β: degradation of proteoglycans (35SO4 glycosaminoglycan release). It counts as cell-based. The note with it: IL-1β (10 mg/ml), 3 days; for inhibition at 30 µM: Cavia porcellus, 72 h, 3 × 10^-5 M, cartilage labeled with 35SO4, read-out: proteoglycans % protection at 3 × 10^-5M. As to the method:
as §1
on the other hand, to the degradation of proteoglycans: radioisotopic measurement of the glycosaminoglycan fraction released by the tissue during the 3 days of contact with IL-1β (10 mg/mil), the cartilage having been labeled beforehand with ^35 SO4.
as §2

The subject of assay [3] is ovarian cancers. As to conditions: Becket et al., DDT 1996; cited from earlier work.
Assay [4] relates to sections of thoracic aorta from Fischer 344 rats. Briefly: Angiogenesis in vitro, formation of pseudovessels in collagen gel. It counts as cell-based. The note with it: Rattus norvegicus, 120 h; at 100 nM, five days of culture in serum-free medium; read-out: inhibition of formation of pseudovessels (vascular density). The source says:
Sections of thoracic aorta from 8- to 12-week old male Fischer 344 rats are immersed in a collagen type I gel according to the Nicosia and Ottinetti method (1990). After five days of culture in serum-free medium, the preparations are examined under a microscope and the formation of pseudovessels is quantified in terms of vascular density after digitization and image analysis.

Assay [5] has as its system murine Lewis carcinoma cells (LLC). As to the kind of experiment: Invasion in vitro, Transwell filter coated with artificial extracellular matrix. The assay is classed as cell-based. As to conditions: Mus musculus, 24 h, medium with serum, read-out: inhibition of cellular invasion. As to the method: The tests of invasion are carried out according to the following procedure: murine Lewis carcinoma cells (LLC) are deposited on the top face of a Transwell filter coated with an artificial extracellular matrix and are cultured in medium with serum for 24 h. The cells are then exposed to the vital stain 3-[4,5-dimethylthiazol-2-yl]-2,5-diphenyltetrazolium bromide and they are removed from the top face of the filter. The formazan crystals present under the filter are solubilized in a concentrated mixture of sodium dodecyl sulfate and dimethylformamide. The absorption at 540 nm of the corresponding colored mixture is then used to indirectly quantify cellular invasion.

`COc1ccc(S(=O)(=O)N2Cc3nc[nH]c3C[C@@H]2C(=O)NO)cc1` [Example 23, (6R)-5-(4-Methoxybenzenesulfonyl)-4,5,6,7-tetrahydro-imidazo[4,5-c]pyridine-6-(N-hydroxy)carboxamide Hydrochloride]: the inhibition at 1 µM in assay [1] was 88%. Also, the inhibition at 30 µM in assay [2] was found to be 24%.
Regarding `CNC(=O)[C@H](Cc1ccccc1)NC(=O)[C@H](CC(C)C)[C@H](CSc1cccs1)C(=O)NO` [BB94], the “antitumor activity in clinical trials” value in assay [3] is “proved active on ovarian cancers”.
Regarding `COc1ccc(S(=O)(=O)N2Cc3occc3C[C@@H]2C(=O)NO)cc1` [Example 28, (5R)-6-(4-Methoxybenzenesulfonyl)-4,5,6,7-tetrahydrofuro[2,3-c]pyridine-5-(N-hydroxy)carboxamide], the inhibition at 1 µM in assay [1] worked out at 79%; in assay [5] it was 44%. Besides, the inhibition at 30 µM in assay [2] came to 34%. The inhibition at 0.1 µM in assay [4] worked out at 85%.
For `COc1ccc(S(=O)(=O)N2Cc3sccc3C[C@@H]2C(=O)NO)cc1` [Example 15, (5R)-6-(4-Methoxybenzenesulfonyl)-4,5,6,7-tetrahydro-thieno[2,3-c]pyridine-5-(N-hydroxy)carboxamide], the inhibition at 1 µM in assay [1] worked out at 98%. Also, the inhibition at 30 µM in assay [2] turned out to be 60%.
Turning to `COc1ccc(S(=O)(=O)N2Cc3ccsc3C[C@@H]2C(=O)NO)cc1` [Example 1, (6R)-5-(4-Methoxybenzenesulfonyl)-4,5,6,7-tetrahydrothieno[3,2-c]pyridine-6-(N-hydroxy)carboxamide], the inhibition at 1 µM was 98% in assay [1] and 45% in assay [5]. Also, the inhibition at 30 µM in assay [2] came out at 45%. Moreover, the inhibition at 0.1 µM in assay [4] came to 87%.
With `CCCCCCCC1c2[nH]c3ccccc3c2C[C@H](C(=O)NO)N1S(=O)(=O)c1ccc(OC)cc1` (single isomer, unassigned) [Example 7], in assay [1] (1 µM), the “collagen % protection at 10^-6 M” value worked out at 47%. Further, the “proteoglycans % protection at 3 × 10^-5M” value in assay [2] (cartilage labeled with 35SO4, 30 µM) is 100%.
